In patent publication US8076487B2, “Pyridone derivative and herbicide” (Kumiai Chemical Industry Co., Ltd., priority 2006, dated 2011):

What was measured:
Assay type in all cases: in vivo
[1] = test system: green foxtail (Setaria viridis (L.) P. Beauv.); experiment: Test Example 2: herbicidal effect by soil application to upland field; details: soil surface spray, upland field soil, 1,000 g active ingredient per hectare, 21st day after application
Procedure, shortened: (§1)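 Soil-applied wettable powder, 1,000 g a.i./ha, sprayed after sowing onto covered field soil. Effect rated on a standard scale 21 days later in a greenhouse.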

[2] = test system: velvetleaf (Abutilon theophrasti medicus); experiment: as above; details: soil surface spray, upland field soil, 1,000 g active ingredient per hectare, 21st day after application
Procedure, shortened: as §1

[3] = test system: barnyardgrass (Echinochloa crus-galli (L.) P. Beauv. var. crus-galli); experiment: as above; details: soil surface spray, upland field soil, 1,000 g active ingredient per hectare, 21st day after application
Procedure, shortened: as §1

[4] = test system: slender amaranth (Amaranthus viridis L.); experiment: as above; details: soil surface spray, upland field soil, 1,000 g active ingredient per hectare, 21st day after application
Procedure, shortened: as §1

[5] = test system: green foxtail (Setaria viridis (L.) P. Beauv.); experiment: Test Example 3: herbicidal effect by application to upland field (foliage treatment); details: foliage treatment, plants grown two weeks, 1,000 g active ingredient per hectare, 14th day after application
Procedure, shortened: (§2)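 Read-out is a visual herbicidal-effect grade on a standard scale, taken on the 14th day after a single foliar spray. The spray was wettable powder diluted in water, 1,000 g active ingredient/ha at 1,000 L/ha, applied to greenhouse plants two weeks after sowing.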

[6] = test system: velvetleaf (Abutilon theophrasti medicus); experiment: as above; details: foliage treatment, plants grown two weeks, 1,000 g active ingredient per hectare, 14th day after application
Procedure, shortened: as §2

[7] = test system: barnyardgrass (Echinochloa crus-galli (L.) P. Beauv. var. crus-galli); experiment: as above; details: foliage treatment, plants grown two weeks, 1,000 g active ingredient per hectare, 14th day after application
Procedure, shortened: as §2

[8] = test system: slender amaranth (Amaranthus viridis L.); experiment: as above; details: foliage treatment, plants grown two weeks, 1,000 g active ingredient per hectare, 14th day after application
Procedure, shortened: as §2

[9] = test system: heartshape false pickerelweed (Monochoria vaginalis (Burm.f.) C.Presl); experiment: Test Example 1: herbicidal effect by soil application to paddy field; details: paddy field soil application; active ingredient 1,000 g per 1 hectare; wettable powder added dropwise to water surface the day after sowing; examined on the 21st day after application
Procedure, shortened: (§3)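 Under greenhouse conditions, seeds sown on puddled paddy soil in 100 cm2 pots under 3 cm of standing water received the test compound; injury was assessed with a standard scoring scheme three weeks (day 21) after treatment.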

[10] = test system: early watergrass (Echinochloa oryzicola Vasing); experiment: as above; details: paddy field soil application; active ingredient 1,000 g per 1 hectare; wettable powder added dropwise to water surface the day after sowing; examined on the 21st day after application
Procedure, shortened: as §3

[11] = test system: Japanese bulrush (Scirpus juncoides Roxb.); experiment: as above; details: paddy field soil application; active ingredient 1,000 g per 1 hectare; wettable powder added dropwise to water surface the day after sowing; examined on the 21st day after application
Procedure, shortened: as §3

SMILES | herbicidal effect (index), Green Foxtail [1] | herbicidal effect (index), Velvetleaf [2] | herbicidal effect (index), Barnyardgrass [3] | herbicidal effect (index), Slender Amaranth [4] | herbicidal effect (index), Green Foxtail [5] | herbicidal effect (index), Velvetleaf [6] | herbicidal effect (index), Barnyardgrass [7] | herbicidal effect (index), Slender Amaranth [8] | herbicidal effect, Monochoria vaginalis (Burm. f.) C. Presl [9] | herbicidal effect, Echinochloa oryzicola Vasing [10] | herbicidal effect, Scirpus juncoides Roxb. [11]
O=C1CCCC(O)=C1C(=O)c1ccc(C(F)(F)F)n(-c2cccc(F)c2)c1=O [I-92] | 5 (90% or more of herbicidal effect and crop phytotoxicity) | 5 (90% or more of herbicidal effect and crop phytotoxicity) | 5 (90% or more of herbicidal effect and crop phytotoxicity) | 5 (90% or more of herbicidal effect and crop phytotoxicity) | 5 (90% or more of herbicidal effect and crop phytotoxicity) | 5 (90% or more of herbicidal effect and crop phytotoxicity) | 5 (90% or more of herbicidal effect and crop phytotoxicity) | 5 (90% or more of herbicidal effect and crop phytotoxicity) | 5 (90% or more of herbicidal effect and crop phytotoxicity) | 5 (90% or more of herbicidal effect and crop phytotoxicity) | 5 (90% or more of herbicidal effect and crop phytotoxicity)
O=C1CCCC(O)=C1C(=O)c1ccc(C(F)(F)F)n(-c2ccc(F)cc2)c1=O [I-93] | 5 (90% or more of herbicidal effect and crop phytotoxicity) | 5 (90% or more of herbicidal effect and crop phytotoxicity) | 5 (90% or more of herbicidal effect and crop phytotoxicity) | 5 (90% or more of herbicidal effect and crop phytotoxicity) | 5 (90% or more of herbicidal effect and crop phytotoxicity) | 5 (90% or more of herbicidal effect and crop phytotoxicity) | 5 (90% or more of herbicidal effect and crop phytotoxicity) | 5 (90% or more of herbicidal effect and crop phytotoxicity) | 5 (90% or more of herbicidal effect and crop phytotoxicity) | 5 (90% or more of herbicidal effect and crop phytotoxicity) | 5 (90% or more of herbicidal effect and crop phytotoxicity)
N#Cc1cccc(-n2c(C(F)(F)F)ccc(C(=O)C3=C(O)CCCC3=O)c2=O)c1 [I-94] | 5 (90% or more of herbicidal effect and crop phytotoxicity) | 5 (90% or more of herbicidal effect and crop phytotoxicity) | 5 (90% or more of herbicidal effect and crop phytotoxicity) | 5 (90% or more of herbicidal effect and crop phytotoxicity) | 5 (90% or more of herbicidal effect and crop phytotoxicity) | 5 (90% or more of herbicidal effect and crop phytotoxicity) | 5 (90% or more of herbicidal effect and crop phytotoxicity) | 5 (90% or more of herbicidal effect and crop phytotoxicity) | 5 (90% or more of herbicidal effect and crop phytotoxicity) | 5 (90% or more of herbicidal effect and crop phytotoxicity) | 5 (90% or more of herbicidal effect and crop phytotoxicity)
N#Cc1ccc(-n2c(C(F)(F)F)ccc(C(=O)C3=C(O)CCCC3=O)c2=O)cc1 [I-95] | 5 (90% or more of herbicidal effect and crop phytotoxicity) | 5 (90% or more of herbicidal effect and crop phytotoxicity) | 5 (90% or more of herbicidal effect and crop phytotoxicity) | 5 (90% or more of herbicidal effect and crop phytotoxicity) | 5 (90% or more of herbicidal effect and crop phytotoxicity) | 5 (90% or more of herbicidal effect and crop phytotoxicity) | 5 (90% or more of herbicidal effect and crop phytotoxicity) | 5 (90% or more of herbicidal effect and crop phytotoxicity) | 5 (90% or more of herbicidal effect and crop phytotoxicity) | 5 (90% or more of herbicidal effect and crop phytotoxicity) | 5 (90% or more of herbicidal effect and crop phytotoxicity)
O=C1CCCC(O)=C1C(=O)c1ccc(C(F)(F)F)n(-c2ccc(Cl)c(Cl)c2)c1=O [I-98] | 5 (90% or more of herbicidal effect and crop phytotoxicity) | 5 (90% or more of herbicidal effect and crop phytotoxicity) | 5 (90% or more of herbicidal effect and crop phytotoxicity) | 5 (90% or more of herbicidal effect and crop phytotoxicity) | 5 (90% or more of herbicidal effect and crop phytotoxicity) | 5 (90% or more of herbicidal effect and crop phytotoxicity) | 5 (90% or more of herbicidal effect and crop phytotoxicity) | 5 (90% or more of herbicidal effect and crop phytotoxicity) | 5 (90% or more of herbicidal effect and crop phytotoxicity) | 5 (90% or more of herbicidal effect and crop phytotoxicity) | 5 (90% or more of herbicidal effect and crop phytotoxicity)
COc1ccc(-n2c(C(F)(F)F)ccc(C(=O)C3=C(O)CCCC3=O)c2=O)c(OC)c1 [I-99] | 4 (70 to less than 90% of herbicidal effect and crop phytotoxicity) | 5 (90% or more of herbicidal effect and crop phytotoxicity) | 5 (90% or more of herbicidal effect and crop phytotoxicity) | 5 (90% or more of herbicidal effect and crop phytotoxicity) | 4 (70 to less than 90% of herbicidal effect and crop phytotoxicity) | 5 (90% or more of herbicidal effect and crop phytotoxicity) | 5 (90% or more of herbicidal effect and crop phytotoxicity) | 5 (90% or more of herbicidal effect and crop phytotoxicity) | 5 (90% or more of herbicidal effect and crop phytotoxicity) | 5 (90% or more of herbicidal effect and crop phytotoxicity) | 5 (90% or more of herbicidal effect and crop phytotoxicity)
